Results taken from patent publication US20200108043A1, “COMPOUNDS AND COMPOSITIONS FOR EXTENDING LIFESPAN OF A SUBJECT” (YALE UNIVERSITY, priority 2017, published 2020).
Entries after “also recorded” stand apart in the source; their conditions may differ.

Tests used:
C. elegans = assay: Roundworm (C. elegans) lifespan extension; format: in vivo, Caenorhabditis elegans; settings: 10 μM in NGM plates, treated for duration of lifespan, vs control
Protocol: Synchronized animals were obtained using the egg-laying method, allowing young […] eggs for 4 hours on bacteria-seeded plates. For each treatment group, 120 synchronized day-1 adults were used. All experiments were carried out at 20° C. Treatment groups were blinded. Nematode growth media (NGM) plates were made for each treatment group: Negative control (DMSO), Mycophenolic Acid (10 μM in DMSO), and Terreic Acid (10 μM in DMSO). The compounds were added to NGM media before pouring the plates. The plates were then dried overnight before moving them to 4° C. to prevent degradation of the compounds. Plates were seeded with 100 μL of 10× concentrated OP50 E. coli, and dried overnight at room temperature. Plates were UV treated with a UVP CL-1000 Ultraviolet Crosslinker, run twice on the energy setting ‘9999’ for about 5 minutes each run. Worms were transferred to new plates every 2-4 days. Viability was scored every day, with death determined by lack of response to a platinum wire. Missing worms, or those that died due to internal hatching were censored.

Saccharomyces cerevisiae = assay: High-Life (High throughput replicative Lifespan measurement) flow cytometry assay in MEP yeast; format: cell-based; settings: 10 μM, 24 hours in culture, 3-4 replicate wells, repeat of screen hits
Protocol: Cells were labeled with NHS-fluorescein as described above, then diluted to 20 cells/μL in media. 80 μL/well was aliquoted to 384-well plates, which were covered with a breathable membrane and placed on a shaker platform in a humidified incubator. After 3 hours, the plates were removed from the incubator and each well was treated with 20 μL pre-warmed, 30° C. 5 μM β-estradiol in media. In the case of ibuprofen or compound-treated wells, the compound was diluted in this volume at a 5× concentration to achieve a final concentration of 10 μM, or 100 μM for ibuprofen. The plates were then returned to the incubator. At indicated times, one plate was removed from the incubator and placed on an autosampler cooled to 8° C. attached to a Stratedigm flow cytometer. The cytometer was set to automatically add and mix 20 μL of aqueous solution containing 60 μg/mL CF405M-WGA (Biotium 29028) and propidium iodide (Sigma P4864) prior to acquiring 80 μL of sample for each well.
In order to test the lifespan of model organisms on both a large-scale and with quick turn-around, a massively multiplexed method was developed to measure replicative lifespan in the short-lived model organisms Saccharomyces cerevisiae. The protocol uses green-fluorescent labeling to identify progenitor cells, red-fluorescent labeling to differentiate non-viable cells, and blue-fluorescent labeling of bud scars to determine replicative age (FIG. 1). Each parameter is measured using a flow cytometer.
To achieve high throughput, the measurement system was automated, and the assay was performed in 384-well plates. The assay was performed using an autosampler-equipped flow cytometer, in a volume of 100 μL. Growth of even a single cell and its progeny in such a small volume will result in nutrient starvation before the natural replicative lifespan is exhausted; therefore to circumvent this issue, High-Life experiments were performed in the background of the Mother Enrichment Program (MEP) (Lindstrom and Gottschling, Genetics. 2009 October; 183(2):413-22). MEP strains express a CRE recombinase fused to an estrogen-binding domain for only a short time after birth. In the presence of β-estradiol, the recombinase translocates to the nucleus where it can excise two essential genes that have been modified to contain the exogenous LoxP sequence. Addition of β-estradiol to the media thus renders newborn daughters inviable without affecting existing mother cells, preventing exponential growth of the cell population and nutrient depletion (FIG. 2A).
The High-Life method was then tested to determine if it was suitable to screening for compounds that extend replicative lifespan. […] The effect of these compounds on High-Life readings was assayed after 24 hours in culture at 10 μM concentration. As a positive control, ibuprofen was used.

COc1c(C)c2c(c(O)c1C/C=C(\C)CCC(=O)O)C(=O)OC2 [mycophenolic acid]
lifespan of C. elegans (C. elegans): measurable extension of lifespan; also recorded: statistically significant lifespan extension
average High-Life readings (progenitor fraction viable vs CF405M intensity) relative to controls (Saccharomyces cerevisiae): at least slightly above controls
